Data from patent publication US9822115B2, “Nitrogen containing compounds and their use as antibacterial agents” (WOCKHARDT LIMITED, priority 2014, dated 2017).
Converted amounts (≈) assume the structure as drawn. Read-outs that look alike come from different tables or passages of the source.

Legend:
[1] = target: T1, Class A beta-lactamase, K. pneumoniae ATCC 700603 (SHV 18) (Klebsiella pneumoniae, UniProt P0AD64, E235K/G234A/R39S); experiment: biochemical
T1 construct: preincubated mixture of crude enzyme and the agents; endogenous in cells; host or cells: K. pneumoniae ATCC 700603
Summary of the method: (§1)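 Crude enzyme preincubated with inhibitor 10 min at 37 °C, then nitrocefin (100 uM) added for 5 min. Absorbance read at 485 nm; IC50 obtained from sigmoidal dose-response fit of absorbance versus concentration.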

[2] = tested on: T2, Class C beta-lactamase, E. coli M50 (CMY/DHA); format: biochemical; conditions: read-out: Beta-lactamase enzyme inhibition IC50
T2 construct: no borders, tags or purification printed
Summary of the method: as §1

K. pneumoniae S 21 = experiment: Antibacterial activity, MIC by agar dilution (CLSI); format: cell-based; conditions: Klebsiella pneumoniae, S21, Table 3
Description: (§2) The biological activity of representative compounds according to the invention against various bacterial strains was investigated. In a typical study, overnight grown bacterial cultures were diluted appropriately and inoculated on the agar media containing doubling dilutions of the test compounds. Observations for growth or no growth was performed after 16-20 hours of incubation at 35±2° C. in the ambient air. The overall procedure was performed as per Clinical and Laboratory Standards Institute (CLSI) recommendations, (Clinical and Laboratory Standards Institute (CLSI), Performance Standards for Antimicrobial Susceptibility Testing, 20th Informational Supplement, M07-A9, Volume 32, No. 2, 2012). Molten Mueller Hinton Agar (BD, USA) containing serial dilutions of each antibacterial agent were poured on to the plates and allowed to solidify. Appropriate suspensions from the freshly grown cultures were prepared in normal saline so that about 10^4 CFU/spot of the organism was delivered on to the drug containing agar plates using automated multipoint inoculator (Mast, UK). The plates were incubated in Biochemical oxygen demand (BOD) incubator at 37° C. for 18 hours and then examined for growth.
(§3) Table 3 details the antibacterial activity of representative compound of Formula (I), Sodium salt of (2S,5R)-Sulfuric acid mono-[2-(N′-(4-hydroxyphenyl-acetyl)-hydrazinocarbonyl)-7-oxo-1,6-diaza-bicyclo[3.2.1]oct-6-yl]ester (Compound of Example 1) and Sodium salt of (2S,5R)-Sulfuric acid mono-[2-(N′-(pyridine-2-yl-acetyl)-hydrazinocarbonyl)-7-oxo-1,6-diaza-bicyclo[3.2.1]oct-6-yl] ester (Compound of Example 8), against various Multi Drug Resistant (MDR) Gram-negative bacterial strains.

P. aeruginosa R 20 = experiment: as above; format: cell-based; conditions: Pseudomonas aeruginosa, R20, Table 3
Description: as §2, §3

K. pneumoniae H 525 = experiment: as above; format: cell-based; conditions: Klebsiella pneumoniae, H525, Table 3
Description: as §2, §3

C. frundaii 58 MP = experiment: as above; format: cell-based; conditions: Table 3
Description: as §2, §3

P. aeruginosa PAO1 = experiment: as above; format: cell-based; conditions: Pseudomonas aeruginosa, Table 3
Description: as §2, §3

E. coli NCTC 13351 = experiment: as above; format: cell-based; conditions: Escherichia coli, NCTC13351, Table 3
Description: as §2, §3

P. aeruginosa ATCC 27853 = experiment: as above; format: cell-based; conditions: Pseudomonas aeruginosa, ATCC27853, Table 3
Description: as §2, §3

E. coli NCTC 13352 = experiment: as above; format: cell-based; conditions: Escherichia coli, NCTC13352, Table 3
Description: as §2, §3

E. coli M 50 = experiment: as above; format: cell-based; conditions: Escherichia coli, M50, Table 3
Description: as §2, §3

E. coli M 49 = experiment: as above; format: cell-based; conditions: Escherichia coli, M49, Table 3
Description: as §2, §3

K. pneumoniae B 88 = experiment: as above; format: cell-based; conditions: Klebsiella pneumoniae, B88, Table 3
Description: as §2, §3

P. aeruginosa 2779 = experiment: as above; format: cell-based; conditions: Pseudomonas aeruginosa, Table 3
Description: as §2, §3

E. cloacae M 20 = experiment: as above; format: cell-based; conditions: Enterobacter cloacae, M20, Table 3
Description: as §2, §3

E. coli 7 MP = experiment: as above; format: cell-based; conditions: Escherichia coli, Table 3
Description: as §2, §3

[3] = target: T3, Class D beta-lactamase, A. baumannii NCTC 13301 (OXA 23) (Acinetobacter baumannii, UniProt Q9L4P2); experiment: Beta-lactamase enzyme inhibition (nitrocefin, crude enzyme); format: biochemical; conditions: Class D A. baumannii NCTC 13301 (OXA 23); read-out: Beta-lactamase enzyme inhibition IC50
T3 construct: preincubated mixture of crude enzyme and the agents; endogenous in cells; host or cells: A. baumannii NCTC 13301
Summary of the method: as §1

[4] = tested on: E. coli NCTC 13353 (CTX-M15, OXA-1); experiment: Antibacterial activity, MIC by agar dilution (CLSI); format: cell-based; conditions: Escherichia coli, read-out: MIC
Summary of the method: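 CLSI agar dilution on Mueller Hinton agar containing doubling compound dilutions, inoculated at about 10^4 CFU/spot from fresh cultures. Plates were incubated 18 h at 37 °C in ambient air before growth scoring. MIC is reported in mcg/ml.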

[5] = tested on: K. pneomoniae S48 (NDM, SHV, TEM); experiment: as above; format: cell-based, K. pneumoniae; conditions: Klebsiella pneumoniae; Table 2; K. pneomoniae S48 (NDM, SHV, TEM); read-out: MIC
Summary of the method: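 Agar dilution per CLSI on Mueller Hinton agar with doubling compound dilutions, about 10^4 CFU/spot by multipoint inoculator. Plates incubated 16-20 h at 35±2° C in ambient air; procedure also gives 37° C for 18 h. MIC (mcg/ml) scored as growth or no growth.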

[6] = NCTC13353, Table 2, E. Coli NCTC 13353 (CTX-M15, OXA-1)
[7] = NCTC13353, Table 3, E. coli NCTC 13353

T1 sequence (P0AD64 22-286 R39S/G234A/E235K): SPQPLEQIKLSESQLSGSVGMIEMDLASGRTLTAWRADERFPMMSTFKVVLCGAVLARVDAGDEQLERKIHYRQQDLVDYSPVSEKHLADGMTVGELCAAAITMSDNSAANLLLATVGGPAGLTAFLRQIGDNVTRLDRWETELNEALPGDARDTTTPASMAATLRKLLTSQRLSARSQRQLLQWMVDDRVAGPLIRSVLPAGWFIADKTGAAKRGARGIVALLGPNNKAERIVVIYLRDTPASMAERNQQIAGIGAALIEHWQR
T3 sequence (Q9L4P2 18-273): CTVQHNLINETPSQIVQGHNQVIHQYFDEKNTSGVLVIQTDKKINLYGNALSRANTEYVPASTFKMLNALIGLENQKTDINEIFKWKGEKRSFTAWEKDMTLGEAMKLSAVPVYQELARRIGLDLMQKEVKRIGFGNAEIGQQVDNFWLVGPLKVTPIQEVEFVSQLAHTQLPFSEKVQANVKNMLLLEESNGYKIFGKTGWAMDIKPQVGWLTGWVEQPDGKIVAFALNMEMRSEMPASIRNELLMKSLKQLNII

Structure (SMILES)	IC50 [1]	IC50 [2]	MIC (K. pneumoniae S 21)	MIC (P. aeruginosa R 20)	MIC (K. pneumoniae H 525)	MIC (C. frundaii 58 MP)	MIC (P. aeruginosa PAO1)	MIC (E. coli NCTC 13351)	MIC (P. aeruginosa ATCC 27853)	MIC (E. coli NCTC 13352)	MIC (E. coli M 50)	MIC (E. coli M 49)	MIC (K. pneumoniae B 88)	MIC (P. aeruginosa 2779)	MIC (E. cloacae M 20)	MIC (E. coli 7 MP)	IC50 [3]	MIC [4, 6]	MIC [4, 7]	MIC [5]
NCCOc1ccccc1CC(=O)NNC(=O)[C@@H]1CC[C@@H]2CN1C(=O)N2OS(=O)(=O)O [Example 2, (2S,5R)-Sulfuric Acid mono-[2-(N′-{2-[2-(2-amino-ethoxy)-phenyl]-acetyl}-hydrazinocarbonyl)-7-oxo-1,6-diaza-bicyclo[3.2.1]oct-6-yl]ester]	119 nM	122 nM	2 µg/mL (≈ 4.37 µM)	> 32 µg/mL	1 µg/mL (≈ 2.19 µM)	16 µg/mL (≈ 35 µM)	> 32 µg/mL	1 µg/mL (≈ 2.19 µM)	> 32 µg/mL	1 µg/mL (≈ 2.19 µM)	1 µg/mL (≈ 2.19 µM)	2 µg/mL (≈ 4.37 µM)	> 32 µg/mL	> 32 µg/mL	2 µg/mL (≈ 4.37 µM)	2 µg/mL (≈ 4.37 µM)	3770 nM	1 µg/mL (≈ 2.19 µM)	0.5 µg/mL (≈ 1.09 µM)	1 µg/mL (≈ 2.19 µM)
O=C(Cc1ccc(O)cc1)NNC(=O)[C@@H]1CC[C@@H]2CN1C(=O)N2OS(=O)(=O)[O-].[Na+] [Example 1, Sodium Salt of (2S,5R)-Sulfuric Acid mono-[2-(N′-(4-hydroxyphenyl-acetyl)-hydrazinocarbonyl)-7-oxo-1,6-diaza-bicyclo[3.2.1]oct-6-yl]ester]	103 nM	5 nM	2 µg/mL	> 32 µg/mL	0.5 µg/mL	32 µg/mL	> 32 µg/mL	0.25 µg/mL	> 32 µg/mL	0.25 µg/mL	0.5 µg/mL	2 µg/mL	0.5 µg/mL	> 32 µg/mL	1 µg/mL	1 µg/mL	315 nM	0.5 µg/mL	0.5 µg/mL	0.5 µg/mL
